Results as given in patent US8772307B2, “Substituted spiro compounds and their use for producing pain-relief medicaments” (Gruenenthal GmbH, priority 2005, dated 2014).

What was measured:
[1] = molecular target: T1, rat-species vanilloid receptor 1 (VR1/TRPV1) (Rattus norvegicus, UniProt O35433); test: Functional testing on vanilloid receptor 1 (VR1/TRPV1): FLIPR Ca2+ inflow assay in rat dorsal root ganglia cells (% activation / % inhibition vs capsaicin); assay type: cell-based; conditions: for inhibition at 10 µM: inhibition compared to 10 μM CP (capsaicin); for activation at 10 µM: stimulation compared to 10 μM CP (capsaicin); for IC50: capsaicin (CAP) stimulus, average
T1 construct: endogenous in cells; host or cells: primary cells dissociated from rat dorsal root ganglia (DRG)
Experimental: Preference may also be given to substituted spiro compounds according to the invention of general formula I which in a FLIPR assay in a concentration of 10 μM display inhibition of the Ca^2+ ion inflow in dorsal root ganglia of rats of at least 30%, preferably of at least 40%, particularly preferably of at least 50%, most particularly preferably of at least 70%, even more preferably of at least 90%, compared to the maximum achievable inhibition of the Ca^2+ ion inflow with capsaicin in a concentration of 10 μM.
In the FLIPR assay, the Ca^2+ inflow is quantified using a Ca^2+-sensitive dye (type Fluo-4, Molecular Probes Europe BV, Leiden, Netherlands) in a fluorescent imaging plate reader (FLIPR, Molecular Devices, Sunnyvale, USA), as described hereinafter.
I. Functional Testing Carried Out on the Vanilloid Receptor 1 (VR1/TRPV1 Receptor)
(§1) The agonistic or antagonistic effect of the substances to be tested can be determined on the rat-species vanilloid receptor 1 (VR1/TRPV1) using the following assay. According to this assay, the Ca^2+ inflow is quantified through the receptor channel using a Ca^2+-sensitive dye (type Fluo-4, Molecular Probes Europe BV, Leiden, Netherlands) in a fluorescent imaging plate reader (FLIPR, Molecular Devices, Sunnyvale, USA).
Complete medium: 50 mL HAMS F12 nutrient mixture (Gibco Invitrogen GmbH, Karlsruhe, Germany) with
10% by volume of FCS (foetal calf serum, Gibco Invitrogen GmbH, Karlsruhe, Germany, […]);
2 mM L-glutamine (Sigma, Munich, Germany);
1% by weight of AA solution (antibiotic/antimyotic solution, PAA, Pasching, Austria)
and 25 ng/ml NGF medium (2.5 S, Gibco Invitrogen GmbH, Karlsruhe, Germany)
Cell culture plate: Poly-D-lysine-coated, black 96 well plates having a clear base (96 well black/clear plate, BD Biosciences, Heidelberg, Germany) were additionally coated with laminin (Gibco Invitrogen GmbH, Karlsruhe, Germany), the laminin being diluted with PBS (Ca—Mg-free PBS, Gibco Invitrogen GmbH, Karlsruhe, Germany) to a concentration of 100 μg/mL. Aliquots having a laminin concentration of 100 μg/mL were removed and stored at −20° C. The aliquots were diluted with PBS in a ratio of 1:10 to 10 μg/mL laminin and in each case 50 μL of the solution were pipetted into a recess in the cell culture plate. The cell culture plates were incubated for at least two hours at 37° C., the excess solution was removed by suction-filtration and the recesses were each washed twice with PBS. The coated cell culture plates were stored with excess PBS which was not removed until just before the feeding of the cells.
Preparation of the Cells:
The vertebral column was removed from decapitated rats and placed immediately into cold HBSS buffer (Hank's buffered saline solution, Gibco Invitrogen GmbH, Karlsruhe, Germany), i.e. buffer located in an ice bath, mixed with 1% by volume (percent by volume) of an AA solution (antibiotic/antimyotic solution, PAA, Pasching, Austria). The vertebral column was cut longitudinally and removed together with fasciae from the vertebral canal. Subsequently, the dorsal root ganglia (DRG) were removed and again stored in cold HBSS buffer mixed with 1% by volume of an AA solution. The DRG, from which all blood remnants and spinal nerves had been removed, were transferred in each case to 500 μL of cold type 2 collagenase (PAA, Pasching, Austria) and incubated for 35 minutes at 37° C. After the addition of 2.5% by volume of trypsin (PAA, Pasching, Austria), incubation was continued for 10 minutes at 37° C. After complete incubation, the enzyme solution was carefully pipetted off and 500 μL of complete medium were added to each of the remaining DRG. The DRG were in each case suspended several times, drawn through cannulae No. 1, No. 12 and No. 16 using a syringe and transferred to a 50 mL Falcon tube which was filled up to 15 mL with complete medium. […]

vanilloid receptor (VR1) = molecular target: T2, vanilloid receptor (VR1) (Homo sapiens, UniProt Q8NER1); test: Functional testing on vanilloid receptor (VR1): FLIPR Ca2+ inflow assay in CHO K1 cells stably transfected with the VR1 gene; assay type: cell-based; conditions: for inhibition at 10 µM: CHO-K1, inhibition compared to 10 μM CP (capsaicin); for activation at 10 µM: CHO-K1, stimulation compared to 10 μM CP (capsaicin); for IC50: capsaicin (CAP) stimulus, average
T2 construct: expressed in transfected cells; host or cells: CHO K1 cells (ECACC), stably transfected
From the text: II. Functional Testing Carried Out on the Vanilloid Receptor (VR1)
as §1, with “can also” for “can”, “the” for “the rat-species”, “(VR1)” for “1 (VR1/TRPV1)”, “the” for “the receptor”
Chinese hamster ovary cells (CHO K1 cells, European Collection of Cell Cultures (ECACC) United Kingdom) were stably transfected with the VR1 gene. For functional testing, these cells were plated out on poly-D-lysine-coated black 96 well plates having a clear base (BD Biosciences, Heidelberg, Germany) at a density of 25,000 cells/well. The cells were incubated overnight at 37° C. and 5% CO2 in a culture medium (Ham's F12 nutrient mixture, 10% by volume of FCS (foetal calf serum), 18 μg/ml L-proline). The next day the cells were incubated with Fluo-4 (Fluo-4 2 μM, 0.01% by volume of Pluronic F127, Molecular Probes in HBSS (Hank's buffered saline solution), Gibco Invitrogen GmbH, Karlsruhe, Germany) for 30 minutes at 37° C. Subsequently, the plates were washed 3 times with HBSS buffer and after further incubation for 15 minutes at room temperature used for Ca^2+ measurement in a FLIPR assay. The Ca^2+-dependent fluorescence was measured before and after the addition of the substances to be tested (λex wavelength=488 nm, λem=540 nm). Quantification was carried out by measuring the highest fluorescence intensity (FC, Fluorescence Counts) over time.
The FLIPR protocol consists of 2 substance additions. First the compounds to be tested (10 μM) were pipetted onto the cells and the Ca^2+ inflow was compared with the control (capsaicin 10 μM) (% activation based on the Ca^2+ signal after the addition of 10 μM capsaicin). After 5 minutes' incubation, 100 nM of capsaicin were administered and the Ca^2+ inflow was also determined.
Desensitising agonists and antagonists led to suppression of the Ca^2+ inflow. The % inhibition was calculated compared to the maximum achievable inhibition with 10 μM of capsaicin.

T1 sequence (O35433 whole entry): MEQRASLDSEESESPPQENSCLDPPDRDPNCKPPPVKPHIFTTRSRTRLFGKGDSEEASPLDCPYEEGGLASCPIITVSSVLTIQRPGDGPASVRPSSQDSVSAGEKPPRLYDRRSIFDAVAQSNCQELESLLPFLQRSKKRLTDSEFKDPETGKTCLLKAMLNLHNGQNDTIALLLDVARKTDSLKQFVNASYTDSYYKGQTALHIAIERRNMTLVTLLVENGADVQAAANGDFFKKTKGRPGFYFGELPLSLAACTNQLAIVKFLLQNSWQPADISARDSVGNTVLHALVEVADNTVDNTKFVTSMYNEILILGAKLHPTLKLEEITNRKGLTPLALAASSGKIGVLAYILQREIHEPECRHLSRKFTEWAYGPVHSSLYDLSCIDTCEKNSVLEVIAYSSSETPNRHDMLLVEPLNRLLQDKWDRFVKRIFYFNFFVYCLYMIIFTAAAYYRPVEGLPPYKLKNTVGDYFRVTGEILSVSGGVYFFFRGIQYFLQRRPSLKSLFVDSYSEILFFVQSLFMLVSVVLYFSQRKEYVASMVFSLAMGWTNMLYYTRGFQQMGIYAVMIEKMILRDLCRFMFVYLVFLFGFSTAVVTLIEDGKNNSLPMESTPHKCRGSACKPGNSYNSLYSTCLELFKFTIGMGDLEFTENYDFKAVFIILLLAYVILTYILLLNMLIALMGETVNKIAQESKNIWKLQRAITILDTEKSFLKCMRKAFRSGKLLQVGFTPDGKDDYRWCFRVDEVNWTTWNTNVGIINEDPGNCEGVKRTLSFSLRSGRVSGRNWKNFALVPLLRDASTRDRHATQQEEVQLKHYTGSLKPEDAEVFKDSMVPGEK
T2 sequence (Q8NER1 whole entry): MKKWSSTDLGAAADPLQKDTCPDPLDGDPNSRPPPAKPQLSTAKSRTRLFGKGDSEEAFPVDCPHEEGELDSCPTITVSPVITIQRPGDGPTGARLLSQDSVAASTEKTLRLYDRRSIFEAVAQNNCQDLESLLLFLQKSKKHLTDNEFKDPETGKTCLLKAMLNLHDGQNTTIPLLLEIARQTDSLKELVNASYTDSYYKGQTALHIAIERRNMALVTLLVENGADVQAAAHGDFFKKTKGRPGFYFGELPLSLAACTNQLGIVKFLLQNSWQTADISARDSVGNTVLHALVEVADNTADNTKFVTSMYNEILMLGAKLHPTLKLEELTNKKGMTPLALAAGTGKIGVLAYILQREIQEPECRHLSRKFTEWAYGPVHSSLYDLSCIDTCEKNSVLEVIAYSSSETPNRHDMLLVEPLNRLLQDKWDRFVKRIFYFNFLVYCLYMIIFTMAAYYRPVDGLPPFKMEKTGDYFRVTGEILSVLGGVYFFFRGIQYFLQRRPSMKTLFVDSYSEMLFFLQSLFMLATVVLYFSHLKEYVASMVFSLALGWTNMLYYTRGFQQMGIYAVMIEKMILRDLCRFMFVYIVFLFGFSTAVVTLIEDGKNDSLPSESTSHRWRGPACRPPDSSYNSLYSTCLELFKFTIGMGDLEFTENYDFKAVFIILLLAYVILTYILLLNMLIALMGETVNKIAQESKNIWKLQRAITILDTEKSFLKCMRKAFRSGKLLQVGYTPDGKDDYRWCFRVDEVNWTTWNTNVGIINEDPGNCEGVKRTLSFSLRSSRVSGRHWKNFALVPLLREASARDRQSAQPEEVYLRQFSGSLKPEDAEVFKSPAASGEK

| Structure (SMILES) | inhibition at 10 µM [1] [%] | activation at 10 µM [1] [%] | inhibition at 10 µM (vanilloid receptor (VR1)) [%] | activation at 10 µM (vanilloid receptor (VR1)) [%] | IC50 [1] [µM] | IC50 (vanilloid receptor (VR1)) [µM] |
| --- | --- | --- | --- | --- | --- | --- |
| COc1cccc(C2=NOC3(CCN(C(=O)Nc4ccc(Cl)cc4)CC3)C2)c1 [Compound 39, 3-(3-methoxyphenyl)-1-oxa-2,8-diazaspiro[4.5]dec-2-ene-8-carboxylic acid-(4-chlorophenyl)amide] | 74 | 0.11 | 25 | -0.14 |  |  |
| O=C(C=Cc1ccc(C(F)(F)F)cc1)N1CCC2(CC1)CC(c1ccccc1)=NO2 [Compound 314, 1-(3-phenyl-1-oxa-2,8-diazaspiro[4.5]dec-2-en-8-yl)-3-(4-trifluoromethylphenyl)propenone] | 82 | -6 | 6 | 0 | 0.15 | 0.825 |
| CC(C)(C)c1ccc(C2=NOC3(CCN(C(=O)Nc4ccc(Cl)cc4)CC3)C2)cc1 [Compound 42, 3-(4-tert-butylphenyl)-1-oxa-2,8-diazaspiro[4.5]dec-2-ene-8-carboxylic acid-(4-chlorophenyl)amide] | 39.9 | -0.73 | 2.57 | -0.22 |  |  |
| Cc1ccc(C2=NOC3(CCN(C(=O)Nc4ccc(C(C)(C)C)cc4)CC3)C2)cc1 [Compound 144, 3-p-tolyl-1-oxa-2,8-diazaspiro[4.5]dec-2-ene-8-carboxylic acid-(4-tert-butylphenyl)amide] | 94.5 | -0.43 | -16.6 | -0.18 |  |  |
| O=C(Nc1ccccc1Oc1ccccc1)N1CCC2(CC1)CC(c1ccc(C(F)(F)F)cc1)=NO2 [Compound 103, 3-(4-trifluoromethylphenyl)-1-oxa-2,8-diazaspiro[4.5]dec-2-ene-8-carboxylic acid-(2-phenoxyphenyl)amide] | 50.9 | -0.47 | 8.28 | -0.35 |  |  |
| CCc1ccc(NC(=O)N2CCC3(CC2)CC(c2ccc(C(F)(F)F)cc2)=NO3)cc1 [Compound 167, 3-(4-trifluoromethylphenyl)-1-oxa-2,8-diazaspiro[4.5]dec-2-ene-8-carboxylic acid-(4-ethylphenyl)amide] | 47.4 | -0.43 | 17.5 | 0.06 |  |  |
| CC(C)(C)c1ccc(C=CC(=O)N2CCC3(CC2)CC(c2ccccc2)=NO3)cc1 [Compound 323, 3-(4-tert-butylphenyl)-1-(3-phenyl-1-oxa-2,8-diazaspiro[4.5]dec-2-en-8-yl)propenone] | 98 | 0 | 36 | 0 | 0.181 | 1.44 |
| CSc1ccc(NC(=O)N2CCC3(CC2)CC(c2ccc(C)cc2)=NO3)cc1 [Compound 69, 3-p-tolyl-1-oxa-2,8-diazaspiro[4.5]dec-2-ene-8-carboxylic acid-(4-methylsulphanylphenyl)amide] | 87.2 | -0.47 | 7.01 | -0.32 |  |  |
| COc1cccc(C2=NOC3(CCN(C(=O)C#Cc4ccc(C(F)(F)F)cc4)CC3)C2)c1 [Compound 361, 1-(3-(3-methoxyphenyl)-1-oxa-2,8-diazaspiro[4.5]dec-2-en-8-yl)-3-(4-(trifluoromethyl)phenyl)prop-2-yn-1-one] | 58 | 0 | 12 | 0 |  |  |
| CC1CN(C(=O)/C=C/c2ccc(C(F)(F)F)nc2N2CCCCC2)CCC12CC(c1ccccc1)=NO2 (centres unmarked) [Compound 367, (E)-1-(6-methyl-3-phenyl-1-oxa-2,8-diazaspiro[4.5]dec-2-en-8-yl)-3-(2-(piperidin-1-yl)-6-(trifluoromethyl)pyridin-3-yl)prop-2-en-1-one] | 96 | -1 | 93 | 0 |  |  |
| FC(F)(F)c1cccc(NC(=S)N2CCC3(CC2)CC(c2ccccc2)=NO3)c1 [Compound 262, 3-phenyl-1-oxa-2,8-diazaspiro[4.5]dec-2-ene-8-thiocarboxylic acid-(3-trifluoromethylphenyl)amide] | 52.5 | -0.54 | 7.81 | -0.28 |  |  |
| CC(C)(C)c1ccc(NC(=O)N2CCC3(CC2)CC(c2ccc(F)cc2)=NO3)cc1 [Compound 349, N-(4-tert-butylphenyl)-3-(4-fluorophenyl)-1-oxa-2,8-diazaspiro[4.5]dec-2-ene-8-carboxamide] | 100 | 5 | -12 | 1 |  |  |
| CC(C)c1ccc(NC(=O)N2CCC3(CC2)CC(c2ccc(Cl)cc2)=NO3)cc1 [Compound 79, 3-(4-chlorophenyl)-1-oxa-2,8-diazaspiro[4.5]dec-2-ene-8-carboxylic acid-(4-isopropylphenyl)amide] | 46.5 | 0.38 | -17.6 | -0.35 |  |  |
| CCc1ccccc1NC(=O)N1CCC2(CC1)CC(c1cccc(OC)c1)=NO2 [Compound 156, 3-(3-methoxyphenyl)-1-oxa-2,8-diazaspiro[4.5]dec-2-ene-8-carboxylic acid-(2-ethylphenyl)amide] | 48.2 | 0.2 | -7.89 | 0.69 |  |  |
| FS(F)(F)(F)(F)c1ccc(NC(=S)N2CCC3(CC2)CC(c2ccccc2)=NO3)cc1 [Compound 330, 3-phenyl-1-oxa-2,8-diazaspiro[4.5]dec-2-ene-8-thiocarboxylic acid-(4-pentafluorosulphanylphenyl)amide] | 103 | 1 |  |  |  |  |
